Like-named read-outs stand apart in the source and are kept apart here.
Assays:
C. albicans CaCi-2 = experiment: Secondary single-agent (no-fluconazole) activity assay; type: cell-based, Candida albicans; conditions: for IC50: Candida albicans
Outline: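 C. albicans CaCi-2 in RPMI synthetic defined medium with 1% Pen/Strep, starting OD600 0.00015, exposed to compound alone (no fluconazole) for 48 h at 37 °C without agitation. Growth read as Alamar Blue fluorescence (1:200 final) after 2 h at room temperature.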

C. albicans CaCi-8 = experiment: microbe, parasite or virus in culture; type: cell-based, Candida albicans; conditions: Candida albicans
Outline: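 Hits tested for chemosensitization of the fluconazole-resistant CaCi-8 strain, for inherent antifungal activity without fluconazole, and for mammalian fibroblast toxicity by fluorescence reporter. Geldanamycin plus fluconazole served as positive control; a Saccharomyces assay assigned mechanism to Hsp90, calcineurin or other pathways.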

[1] = tested on: NIH-3T3 mammalian fibroblasts; experiment: Counterscreen mammalian cell toxicity assay (fibroblast toxicity); type: cell-based, murine; conditions: for IC50: Mus musculus
PBS stability assay = type: physicochemical; conditions: 48-hour incubation, 23° C.
Hsp90 = Hsp90 binning reporter assay; type: cell-based; conditions: Saccharomyces cerevisiae, read-out: Hsp90 pathway inhibition IC50
Method: Corning white, 384-well plates were obtained from Corning (Catalog No. 8867BC; Lot No. 22609019). Tropix Gal-Screen was obtained from Applied Biosystems (Catalog No. T2359; Lot No. 0903044).
SD Growth Media was obtained from MP Biomedical (Catalog No. 4027-012; Lot No. 119458). Complete Supplement minus adenine was obtained from Sunrise Science (Catalog No. 1029-100; Lot No. 070409). Deoxycorticosterone (DOC) steroid was obtained from Sigma. To prepare the assay media, 100 ml (20% (w/v) dextrose and 780 mg Complete Supplement) was added to 100 ml SD Growth Media. Water was added to a final volume of 1 liter, and the solution was filter sterilized.
For DOC media, 1 ml DOC was added to 100 ml SD-ADE media.
The following test strain was used in this study: Saccharomyces cerevisiae W303 reporter strain (ATCC 201238). […]
The OD 600 of 1 ml of culture in a cuvette was read using a standard optical density reader with growth medium as a background blank. […] Luminescence of the wells was read on a standard plate reader as a measure of relative fungal growth. Envision (Perkin Elmer) plate reader set-up: Top read; Luminescence filter (560 nm) at 0.1 seconds.
Potential inhibition of the Hsp90-based chaperone machinery was evaluated using yeast reporter assays involving the glucocorticoid hormone receptor and the tyrosine kinase, v-Src. […]

PBS solubility = conditions: PBS, aqueous buffer
Plasma stability = conditions: % remaining in human plasma after a 5-hour incubation
Plasma protein binding = conditions: human, plasma

COC(=O)Cn1nc(-c2cccc(OC)c2)c2ccccc21 [Compound I-4, methyl 2-(3-(3-methoxyphenyl)-1H-indazol-1-yl)acetate]
Dose-dependent activity against C. albicans CaCi-2 (C. albicans CaCi-2): inactive
IC50 (C. albicans CaCi-2; CACI2, read-out: Activity without fluconazole IC50 (nM)): > 26000 nM
IC50 (C. albicans CaCi-2; CACI2, read-out: CaCi-2 IC50 without fluconazole): > 26000 nM
Fold Selective* (Anti-target IC50/Target IC50) (C. albicans CaCi-2; activity without fluconazole vs CaCi-2 growth inhibition with fluconazole): 59
IC50 (C. albicans CaCi-8; CACI8, read-out: CaCi-8 IC50 with 8 μg/ml fluconazole, Table 12): 1200 nM
IC50 (C. albicans CaCi-8; CACI8, read-out: CaCi-8 growth inhibition IC50 (nM), in the presence of fluconazole): 1210 nM
Dose-dependent activity against murine 3T3 fibroblasts [1]: inactive
Mammalian fibroblast IC50 relative to CaCi-2 IC50 with fluconazole [1]: >59-fold
IC50 ([1]; NIH3T3, read-out: Fibroblast toxicity IC50 (nM)): > 26000 nM
IC50 ([1]; NIH3T3, read-out: IC50 in the mammalian fibroblast assay): > 26000 nM
Fold Selective* (Anti-target IC50/Target IC50) ([1]; fibroblast toxicity vs CaCi-2 growth inhibition): 59
Stability in PBS solution, remaining (PBS stability assay): > 99%
IC50 (Hsp90): 4.18 µM
solubility (PBS solubility): < 1 µM
Plasma Stability (Plasma stability): approximately 3%
fraction unbound (Plasma protein binding): 0.05

From patent publication US9738610B2, “Indazole derivatives and uses thereof” (Whitehead Institute for Biomedical Research, priority 2012, dated 2017)
